Data reported in US20240280564A1, “ASSAY FOR EXTRINSIC INHIBITION” (The J. David Gladstone Institutes, a testamentary trust …, priority 2021, published 2024).

Tests used:
primary rat OPCs = experiment: OPC-X-screen: high-content imaging of MBP+ OLs and GFAP+ astrocytes in fibrinogen-treated OPCs; type: cell-based; details: for Cell-fate switch of OPCs to GFAP+ cells by fibrinogen: fibrinogen-treated primary rat OPCs; for OPC differentiation to mature MBP+ OLs in the presence of fibrinogen: myelin-promoting compound screen, fibrinogen 1.5 mg/ml, benztropine, clemastine, quetiapine, miconazole, (±)U-50488, DMH1 1 μM, clobetasol 5 μM, XAV-939 0.1 μM
[1] = test system: BMP signal transducers SMAD1/5 (phosphorylation); experiment: Immunoblot of phospho-SMAD1/5 in fibrinogen-treated primary rat OPCs; type: cell-based
Experimental: (§1) Cells or tissue were lysed in RIPA lysis buffer (Thermo Fisher Scientific) supplemented with protease/phosphatase inhibitor cocktails (Calbiochem) and lysates were cleared by centrifuging at 13,000×g for 15 minutes at 4° C. Equal amounts of protein were loaded in 4%-12% bis-tris gels (Thermo Fisher Scientific) and analyzed by western blotting. Bands were visualized with HRP-conjugated secondary antibodies (Cell Signaling Technology). Densitometry was performed using ImageJ Software (NIH) with values for each band normalized to GAPDH loading controls from the same membrane. Primary antibodies were: Id2 (1:1000, rabbit monoclonal, #M213, CalBioreagents); phospho-Smad1/5 (1:1000, rabbit monoclonal, #9516, Cell Signaling Technology); GAPDH (1:1000, rabbit monoclonal, #2118, Cell Signaling Technology)

BMP target protein ID2 = experiment: Immunoblot of ID2 protein in fibrinogen-treated primary rat OPCs; type: cell-based
Experimental: as §1

[2] = cited from earlier work
MOG35-55 EAE mice = experiment: Chronic MOG35-55 EAE in NG2-CreERTM:RosatdTomato/+ mice, therapeutic treatment; type: in vivo, mouse
NOD-MOG35-55 EAE mice = experiment: Progressive NOD-MOG35-55 EAE, therapeutic treatment; type: in vivo, mouse
[3] = fibrinogen 2.5 mg/ml, three-fold serial dilutions 5 μM to 2 nM, 3 days
[4] = fibrinogen alone in the OPC-X assay

Molecule: CC(C)Oc1ccc(-c2cnc3c(-c4ccnc5ccccc45)cnn3c2)cc1 [DMH1]
- Cell-fate switch of OPCs to GFAP+ cells by fibrinogen (primary rat OPCs; 3 days): abolished
- OPC differentiation to mature MBP+ OLs in the presence of fibrinogen (primary rat OPCs; 3 days): restored OPC differentiation to mature OLs to control levels
- Fibrinogen-induced phosphorylation of SMAD1/5 [1]: blocked
- Fibrinogen-induced expression of ID2 (BMP target protein ID2): blocked
- Water solubility [2]: not water-soluble

Molecule: c1cc(-c2cnn3cc(-c4ccc(N5CCNCC5)cc4)cnc23)c2cccnc2c1 [LDN-212854]
- Formation of GFAP+ astrocytes from fibrinogen-treated OPCs, dose response (primary rat OPCs; [3]): blocked
- Mature OL (MBP+) differentiation of fibrinogen-treated OPCs, dose response (primary rat OPCs; [3]): restored mature OL differentiation
- Clinical scores (MOG35-55 EAE mice; 6 mg/kg twice daily for 14 days starting at peak disease, vs saline): significantly improved
- Formation of OPC-derived GFAP+ astrocytes (MOG35-55 EAE mice; 14 day treatment, fate mapping): abolished
- Proportion of NG2tdTomato+ OPCs differentiated into GST-pi+ mature OLs (MOG35-55 EAE mice; 14 day treatment, fate mapping, vs controls): increased
- ID2 expression in NG2 cells in the EAE white matter (MOG35-55 EAE mice; 14 day treatment, vs saline): decreased
- Myelin damage (myelin circularity, in vivo 2P imaging) (MOG35-55 EAE mice; chronic, vs saline): markedly reduced
- Perivascular NG2 clusters (in vivo 2P imaging) (MOG35-55 EAE mice; chronic, vs saline): markedly reduced
- Demyelination in spinal cord (MOG35-55 EAE mice; vs saline): reduced
- Fibrinogen deposition in spinal cord (MOG35-55 EAE mice; vs saline): reduced
- Group mean of maximum clinical scores (NOD-MOG35-55 EAE mice; 30 days treatment, five-point scale, saline 2.36): 1.75
- Clinical scores (NOD-MOG35-55 EAE mice; treated for 30 days, vs saline): significantly improved
- Demyelination in spinal cord (NOD-MOG35-55 EAE mice; vs saline): reduced
- Fibrinogen deposition in spinal cord (NOD-MOG35-55 EAE mice; vs saline): reduced
- Water solubility [2]: water-soluble

Molecule: Oc1nc(-c2ccc(C(F)(F)F)cc2)nc2c1CSCC2 [XAV-939]
- OPC differentiation to mature MBP+ OLs in the presence of fibrinogen (primary rat OPCs; 3 days): did not overcome extrinsic inhibition of OPC differentiation by fibrinogen

Molecule: CN1[C@@H]2CC[C@H]1C[C@@H](OC(c1ccccc1)c1ccccc1)C2 [benztropine]
- OPC differentiation to mature MBP+ OLs in the presence of fibrinogen (primary rat OPCs; 3 days): did not overcome extrinsic inhibition of OPC differentiation by fibrinogen

Molecule: CN1CCC[C@@H]1CCO[C@](C)(c1ccccc1)c1ccc(Cl)cc1 [clemastine]
- OPC differentiation to mature OLs in the presence of fibrinogen (clemastine dose-response) (primary rat OPCs; fibrinogen 2.5 mg/ml, differentiation media without T3 or growth factors, 3 days): did not enhance OPC differentiation to mature OLs in the presence of fibrinogen
- Cell-fate switch of OPCs to GFAP+ cells by fibrinogen (primary rat OPCs; 3 days): did not inhibit SMAD1/5 phosphorylation, a key pathway downstream of BMP receptor activation, or rescue OPC cell fate switch to astrocytes
- OPC differentiation to mature MBP+ OLs in the presence of fibrinogen (primary rat OPCs; 3 days): did not overcome extrinsic inhibition of OPC differentiation by fibrinogen
- Number of MBP+ cells in control conditions (primary rat OPCs; no fibrinogen, differentiation media without T3 or growth factors, 3 days): increased
- Fibrinogen-induced phosphorylation of SMAD1/5 [1]: did not block
- Fibrinogen-induced expression of ID2 (BMP target protein ID2): did not block

Molecule: C[C@H]1C[C@H]2[C@@H]3CCC4=CC(=O)C=C[C@]4(C)[C@@]3(F)[C@@H](O)C[C@]2(C)[C@@]1(O)C(=O)CCl [clobetasol]
- OPC differentiation to mature MBP+ OLs in the presence of fibrinogen (primary rat OPCs; 3 days): did not overcome extrinsic inhibition of OPC differentiation by fibrinogen

Molecule: Clc1ccc(COC(Cn2ccnc2)c2ccc(Cl)cc2Cl)c(Cl)c1 (stereo not drawn) [miconazole]
- OPC differentiation to mature MBP+ OLs in the presence of fibrinogen (primary rat OPCs; 3 days): did not overcome extrinsic inhibition of OPC differentiation by fibrinogen

Molecule: OCCOCCN1CCN(C2=Nc3ccccc3Sc3ccccc32)CC1 [quetiapine]
- OPC differentiation to mature MBP+ OLs in the presence of fibrinogen (primary rat OPCs; 3 days): did not overcome extrinsic inhibition of OPC differentiation by fibrinogen

Molecule: fibrinogen
- Decrease of MBP+ mature OLs as compared to controls (primary rat OPCs; [4]): ~60%
- Increase of GFAP+ astrocyte-like cells as compared to controls (primary rat OPCs; [4]): ~60%
